The record followed here is patent US9636409B2, “Enzyme and receptor modulation using covalent conjugates of alpha,alpha-disubstituted glycine esters” (GlaxoSmithKline Intellectual Property Development Limited, priority 2008, dated 2017).

Where two headings read alike, the source gives them in different places.

For series [1], the target named is histone deacetylase activity (HeLa nuclear extract). Nature of the series: Histone deacetylase activity (Fluor de Lys, HeLa nuclear extract). Format: biochemical. The following applies: read-out: Inhibition of HDAC (IC50 nM). As to the method: Histone Deacetylase Activity
The ability of compounds to inhibit histone deacetylase activities was measured using the commercially available HDAC fluorescent activity assay from Biomol. In brief, the Fluor de Lys™ substrate, a lysine with an epsilon-amino acetylation, is incubated with the source of histone deacetylase activity (HeLa nuclear extract) in the presence or absence of inhibitor. Deacetylation of the substrate sensitises the substrate to Fluor de Lys™ developer, which generates a fluorophore. Thus, incubation of the substrate with a source of HDAC activity results in an increase in signal that is diminished in the presence of an HDAC inhibitor.
Data are expressed as a percentage of the control, measured in the absence of inhibitor, with background signal being subtracted from all samples, as follows: % activity=[(S^i−B)/(S^o−B)]×100 where S^i is the signal in the presence of substrate, enzyme and Inhibitor, S^o is the signal in the presence of substrate, enzyme and the vehicle in which the inhibitor is dissolved, and B is the background signal measured in the absence of enzyme.
IC50 values were determined by non-linear regression analysis, after fitting the results of eight data points to the equation for sigmoidal dose response with variable slope (% activity against log concentration of Compound), using Graphpad Prism software.
Histone deacetylase activity from crude nuclear extract derived from HeLa cells was used for screening. The preparation, purchased from 4C (Seneffe, Belgium), was prepared from HeLa cells harvested whilst in exponential growth phase. The nuclear extract was prepared according to the methodology described by J. D. Dignam, Nucl. Acid. Res., 1983, 11, 1475-1489, snap frozen in liquid nitrogen and stored at −80° C. The final buffer composition was 20 mM Hepes, 100 mM KCl, 0.2 mM EDTA, 0.5 mM DTT, 0.2 mM PMSF and 20% (v/v) glycerol.

Series [2] has as its system U937 cells. Kind of series: U937 cell inhibition assay (WST-1 proliferation). The note with it: for Ratio cell IC50s to enzyme IC50: U937 proliferation IC50 to HDAC enzyme IC50; for potency in the cellular (U937 proliferation) assay compared with the parent compound: versus Compound IV. Format: cell-based. As to the method:
(§1) U937 and HUT Cell Inhibition Assay
(§2) Cancer cell lines (U937 and HUT) growing in log phase were harvested and seeded at 1000-2000 cells/well (100 μl final volume) into 96-well tissue culture plates. Following 24 hours of growth cells were treated with compound. Plates were then re-Incubated for a further 72-96 hours before a WST-1 cell viability assay was conducted according to the suppliers (Roche Applied Science) instructions.
(§3) Data were expressed as a percentage inhibition of the control, measured in the absence of Inhibitor, as follows: % inhibition=100−[(S^i/S^o)×100] where S^i is the signal in the presence of Inhibitor and S^o s the signal in the presence of DMSO.
(§4) Dose response curves were generated from 8 concentrations (top final concentration 10 μM, with 3-fold dilutions), using 6 replicates.
(§5) IC50 values were determined by non-linear regression analysis, after fitting the results to the equation for sigmoidal dose response with variable slope (% activity against log concentration of compound), using Graphpad Prism software.

Series [3] deals with HUT 78 cells. Nature of the series: HUT cell inhibition assay (WST-1 proliferation). The series is classed as cell-based. The note with it: Table 5; for IC50: HUT 78 cells; for Ratio IC50s in HUT 78 to U937 cells: proliferation IC50s. Here is the method:
as §1, §2, §3, §4, §5
On the technique in general: Tetrazolium dyes change colour on reduction, which living cells bring about.

Series [4] concerns phosphorylation of MAPKAP-2 in U937 cells. Nature of the series: p38 MAP Kinase cellular assay: inhibition of phosphorylation of MAPKAP2 in U937 cells. The series is classed as cell-based. The following applies: for IC50: Homo sapiens, U-937, U937 monocyte cell line, read-out: Inhibition of phosphorylation of MAPKAP-2 in U937 cells (IC50, nM) (monocyte cell line). As to the method:
(§6) p38 MAP Kinase Cellular Assay: Inhibition of Phosphorylation of MAPKAP2
(§7) U937 or HUT78 cells were plated in RPMI 1640, and were incubated at 37° C., 5% CO2 for 18 hours. 10 mM stocks of compounds were diluted media/0.1% DMSO to give a log or semi-log dilution series. The wells for ‘no treatment’ and ‘anisomycin’ were treated with 0.1% DMSO only. The cells were incubated at 37° C., 5% CO2 for a further 4 hours. Anisomycin was added to all wells except ‘no treatment’ at a final concentration of 10 μM. The cells were incubated at 37° C., 5% CO2 for 30 minutes before harvest. Plates were stood on ice whilst harvesting, and all following steps were carried out at 4° C. The cells were pelleted at 1000 rpm for 10 minutes at 4° C., the media aspirated, and the pellet washed with cold PBS. The pellets were lysed in 120 μl of SDS lysis buffer (62.5 mM Tris, pH 6.8, 2% SDS, 10% glycerol, 50 mM DTT, with protease inhibitors and phosphatase inhibitors added according to the manufacturers' recommendations). After 30 minutes on ice, the samples were sonicated for 5 seconds before centrifugation at 13,000 rpm 4° C. for 10 minutes to remove cell debris. 10 μl of the resulting gel samples were loaded per lane on NOVEX 4-12% Bis-Tris MOPS gels. Membranes from western transfer of gels were blotted with anti-phospho MAPKAP2, anti-phospho HSP27 and anti GAPDH according to the manufacturers' Instructions. Signal was visualised using HRP-Hnked anti-rabbit or anti-mouse antibodies, ECL reagent and ECL film. IC50 values for the various compounds were visualised from the resulting photographic images, using both band-shift and signal intensity.

The test system of series [5] is phosphorylation of MAPKAP-2 in HUT 78 cells. Nature of the series: p38 MAP Kinase cellular assay: inhibition of phosphorylation of MAPKAP2 in HUT 78 cells. The following applies: for IC50: Homo sapiens, HuT78, HUT 78 non-monocyte cell line; for Ratio IC50s in HUT 78 to U937 cells: MAPKAP-2 phosphorylation IC50s. Format: cell-based. Here is the method:
as §6, §7

Series [6] addresses T1, recombinant hCE-1 (Homo sapiens, UniProt P23141).
T1 sequence (P23141 18-567): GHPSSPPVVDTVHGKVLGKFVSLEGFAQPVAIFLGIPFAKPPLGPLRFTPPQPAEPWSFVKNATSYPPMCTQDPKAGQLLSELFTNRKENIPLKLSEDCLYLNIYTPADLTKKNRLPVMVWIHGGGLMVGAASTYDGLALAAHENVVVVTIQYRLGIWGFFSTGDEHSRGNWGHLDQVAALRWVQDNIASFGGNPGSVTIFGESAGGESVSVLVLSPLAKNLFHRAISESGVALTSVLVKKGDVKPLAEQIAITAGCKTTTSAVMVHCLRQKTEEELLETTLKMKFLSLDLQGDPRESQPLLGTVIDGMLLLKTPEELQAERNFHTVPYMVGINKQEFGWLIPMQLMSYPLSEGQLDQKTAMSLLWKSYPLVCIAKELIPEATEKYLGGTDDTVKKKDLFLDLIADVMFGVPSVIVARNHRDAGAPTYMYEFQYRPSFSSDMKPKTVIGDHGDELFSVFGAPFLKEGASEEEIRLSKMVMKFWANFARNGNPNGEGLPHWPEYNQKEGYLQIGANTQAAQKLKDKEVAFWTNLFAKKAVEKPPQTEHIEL
Kind of series: HCE-1 carboxylesterase assay. Format: in vitro ADME. The note with it: result in words. Here is the method:
HCE-1 Carboxylesterase Assay
Hydrolysis of esters to the corresponding carboxylic acids by hCE-1 can be measured using the following procedure. At zero time, 100 μl of recombinant hCE-1 at a concentration of 6 μg/mL in phosphate assay buffer (K2PO4 100 mM, KCl 40 mM, pH 7.4) was added to an equal volume of assay buffer containing 5 μM ester substrate. After thorough mixing, triplicate samples were incubated for 0, 20 or 80 minutes at 37° C. At the appropriate time, hydrolysis was stopped by the addition of 600 μl of acetonitrile. For zero time samples, the acetonitrile was added prior to the enzyme. The samples were analysed for the ester and its corresponding carboxylic acid at room temperature by LCMS (Sciex API 3000, HP1100 binary pump, CTC PAL). Chromatography was based on a […] (75×2.1 mm) column and a mobile phase of 5-95% acetonitrile in water/0.1% formic add. Levels of the acid, the hydrolysis product, after 80 minutes are expressed in ng/mL.

Where [7] appears, read: Table 4, Acid = carboxylic acid hydrolysis product of the ester.
Setting [8] is: Table 4, compound as such, Ester for Examples 7 and 9.
Where [9] appears, read: Table 5, Acid = carboxylic acid hydrolysis product of the ester.
[10] abbreviates: Table 5, compound as such, Ester for Examples 7 and 9.
[11] abbreviates: Homo sapiens, U-937, Table 4, head prints no unit, same values in Table 5 as IC50 nM, read-out: Inhibition of proliferation in U937 cells.
Setting [12] is: Homo sapiens, U-937, Table 5, U937 cells, read-out: Inhibition of proliferation in U937 cells (IC50 nM).

With `CC(C)CC(C)(NCc1ccc(CCC(=O)NO)cc1)C(=O)OC1CCCC1` (racemic) [Example 9, Cyclopentyl N-{4-[3-(hydroxyamino)-3-oxopropyl]benzyl}-2-methyl-D,L-leucinate], the IC50 came to 6240 nM in series [1] (setting [7]); 4900 nM in series [1] (setting [8]); 6240 nM in series [1] (setting [9]); 4900 nM in series [1] (setting [10]); 190 nM in series [2] (setting [11]); 190 nM in series [2] (setting [12]). In addition, the IC50 in series [3] (Homo sapiens, HuT78) was determined as 5500 nM. Also, the “Ratio cell IC50s to enzyme IC50” value in series [2] (Table 4) was 0.04. For the same molecule, the “potency in monocytic (U937) versus non monocytic (Hut78) cell lines (proliferation)” value in series [2] was 30 times. Besides, the “potency in the cellular (U937 proliferation) assay compared with the parent compound” value in series [2] is “significantly more potent than the parent compound”. The “Ratio IC50s in HUT 78 to U937 cells” value in series [3] is 30.
On to `Nc1c(C(=O)c2ccc(F)cc2F)ccc(=O)n1-c1c(F)cccc1F` [Compound II, reference compound], for which the IC50 in series [4] (Table 3) and in series [5] (Table 3) was 10 nM each time. In series [5] (Table 3), the “Ratio IC50s in HUT 78 to U937 cells” value is reported as 1.
In general, inhibition refers to the change of the read-out against control, counted positive when it falls. As to `O=C(CCc1ccccc1)NO` [Compound IV, N-Hydroxy-3-phenyl-propionamide, reference compound], the IC50 in series [1] (setting [8]) and in series [1] (setting [10]) was 2600 nM each time. Further, the inhibition at 10 µM in series [2] (Homo sapiens, U-937, Table 4, @ 10 μM) turned out to be 13%; in series [3] (Homo sapiens, HuT78, @ 10 μM), 10%. Further, the “Ratio cell IC50s to enzyme IC50” value in series [2] (Table 4) is given as >3.85. Further, the “Inhibition of proliferation in U937 cells” value in series [2] (Table 5, @ 10 μM) worked out at 13% @ 10 μM. The “Ratio IC50s in HUT 78 to U937 cells” value in series [3] is on record as ~1.
As for `Nc1c(C(=O)c2ccc(F)cc2F)ccc(=O)n1-c1c(F)cc(OCCC[C@H](N)C(=O)OC2CCCC2)cc1F` [Compund III, reference compound], in series [4] (Table 3), the IC50 turned out to be 1 nM. Moreover, in series [5] (Table 3), the IC50 came to 1 nM and the “Ratio IC50s in HUT 78 to U937 cells” value worked out at 1.
As for `Nc1c(C(=O)c2ccc(F)cc2F)ccc(=O)n1-c1ccc(CCNC2(C(=O)OC3CCCC3)CCCC2)cc1` [Example 3], the IC50 in series [4] (Table 2) worked out at 100 nM. Moreover, the “potency in monocytic versus non monocytic cell lines (MAPKAP-2 phosphorylation)” value in series [4] (U937 versus HUT 78) stood at 100 times. Also, in series [5] (Table 2), the IC50 turned out to be 10000 nM and the “Ratio IC50s in HUT 78 to U937 cells” value was determined as 100.
Turning to `CC(N)(CCCOc1cc(F)c(-n2c(N)c(C(=O)c3ccc(F)cc3F)ccc2=O)c(F)c1)C(=O)OC1CCCC1` (centres unmarked) [Example 5], the IC50 in series [4] (Table 3) amounted to 5 nM. Also, in series [4] (result in words), the “macrophage selectivity (MAPKAP-2 phosphorylation, U937 versus HUT 78)” value is “macrophage selective”. Moreover, in series [5] (Table 3), the IC50 turned out to be 100 nM and the “Ratio IC50s in HUT 78 to U937 cells” value worked out at 20.
In the case of `O=C(CCc1ccc(CNC2(C(=O)OC3CCCC3)CCCC2)cc1)NO` [Example 7, Cyclopentyl 1-({4-[3-(hydroxyamino)-3-oxopropyl]benzyl}amino)cyclopentanecarboxylate], the “hydrolysis by hCE-1” value in series [6] was “hydrolysed by hCE-1”. The IC50 in series [1] (setting [7]) is 6120 nM; in series [1] (setting [8]), 4200 nM; in series [1] (setting [9]), 6120 nM; in series [1] (setting [10]), 4200 nM; in series [2] (setting [11]) it was 180 nM; in series [2] (setting [12]) it was 180 nM. Besides, in series [3] (Homo sapiens, HuT78), the IC50 came to 6200 nM. Besides, the “Ratio cell IC50s to enzyme IC50” value in series [2] (Table 4) stood at 0.043. For the same molecule, the “potency in monocytic (U937) versus non monocytic (Hut78) cell lines (proliferation)” value in series [2] turned out to be 30 times. In addition, in series [2], the “potency in the cellular (U937 proliferation) assay compared with the parent compound” value is reported as “significantly more potent than the parent compound”. Also, the “Ratio IC50s in HUT 78 to U937 cells” value in series [3] was 34.
